From patent publication US8877816B2, “4-(or 5-) substituted catechol derivatives” (Decode Genetics EHF, priority 2007, dated 2014)

How the values were obtained:
PDE4 h4D7 = PDE4 h4D7 (Homo sapiens, UniProt Q08499); assay: In-vitro real-time enzyme-coupled spectrophotometric assay for PDE4 enzymes (h4D7); format: biochemical; conditions: PDE4 isoform h4D7; enzyme-coupled NADH assay, absorbance at 340 nm
Method: (§1) In-vitro assay for PDE4 enzymes. The in-vitro activity of PDE4 enzymes and the in-vitro potency of therapeutic agents described in the present invention was measured using a real-time, enzyme-coupled spectrophotometric assay. By using three different coupling enzymes, the product of the PDE4 reaction is coupled to the oxidation of the reduced form β-nicotinamide adenine dinucleotide (NADH), which dissipation can be monitored spectrophotmetrically at […].
(§2) Assay description. Buffer A containing 50 mM Tris, pH 8.0, 16 mM MgCl2 and 80 mM KCl is prepared and stored at room temperature. Buffer B containing 50 mM Tris, pH 8.0 is prepared and stored at room temperature. Stock solutions of the following reagents are prepared in Buffer B and stored at −20° C.: Adenosine-5′-triphosphate (ATP), cyclic adenosine-5′-monophosphate (cAMP), phosphoenolpyruvate (PEP) and NADH. An assay mix is prepared by mixing Buffer A, […] (TCEP), ATP, PEP, NADH, myokinase (MK), pyruvate kinase (PK), lactate dehydroganese (LDH) and PDE4 to a final volume of 20 mL, which is enough for a single 96-well assay plate. Assay mix (180 μL) and test article (10 μL) in 1:1 DMSO/H2O mixture is pre-incubated at room temperature for 10 min. The enzymatic reaction is initiated by addition of cAMP (10 μL). Final concentration of all components in the assay (200 μL/well) are as follows: 10 mM MgCl2, 50 mM KCl, 5 mM TCEP, 2.5% DMSO, 0.4 mM NADH, 1 mM PEP, 0.04 mM ATP, 5 units MK, 1 unit PK, 1 unit LDH and appropriate amount of PDE4. Reaction progress curves are monitored in a plate reader capable of measuring light absorbance at 340 nm. A decrease in light absorbance at 340 nm is due to oxidation of NADH. Positive controls containing no test article and negative controls containing no test article and no cAMP are included on every assay plate. Reaction rates are determined from the slopes of the linear portions of the progress curves. All data are percent normalized with respect to controls and presented as percent inhibition.

PDE4 h4B1 = PDE4 h4B1 (Homo sapiens, UniProt Q07343); assay: In-vitro real-time enzyme-coupled spectrophotometric assay for PDE4 enzymes (h4B1); format: biochemical; conditions: PDE4 isoform h4B1; enzyme-coupled NADH assay, absorbance at 340 nm
Method: as §1, §2

[1] = test system: leukotriene E4 (LTE4) in human whole blood after Sephadex stimulation; assay: Ex-vivo assay: Sephadex bead stimulated LTE4 production in human whole blood; format: cell-based; conditions: 1.5 h; heparinized human whole blood, Sephadex G-15 beads, 37° C. 90 min, LTE4 by immunoassay; read-out: IC50 (inhibition of LTE4 production)
Method: The activity of PDE4 inhibitors described in the present invention was also measured using in an ex-vivo assay measuring leukotriene E4 (LTE4) in human whole blood after Sephadex stimulation. […] For each sample, 356 μl of heparinized human whole blood (Vacutainer tube #6480) is added to wells of a 96 well plate. Then, 4 μl of a series of compound dilutions (in DMSO) are added in triplicates, suspension mixed and allowed to incubate at 37° C. for 15 min with gentle shaking. After that, blood samples are stimulated by adding 40 μL of Sephadex G-15 beads (Sigma-Aldrich, Sweden). The beads are predissolved in PBS (0.16 g/mL PBS). After mixing, the suspension is incubated at 37° C. for 90 min. Then, 8 μL of 15% EDTA/PBS is added to each sample, mixed and plate centrifuged for 5 min at 115×g at 21° C. and supernatants taken. In each plate, 10 positive controls and 10 negative controls are used, containing DMSO instead of compound solution. The positive controls are stimulated with Sephadex as described for the samples, and in the negative controls (unstimulated), Sephadex solution is replaced by PBS. LTE4 levels in the resulting plasma samples are determined using a commercial enzyme-linked immunoassay (Cayman Chemical Company, Ann Arbor, Mich.) according to the manufacturer's instructions. […]

Sequence of PDE4 h4D7 (Q08499 1-748 isoform Q08499-11): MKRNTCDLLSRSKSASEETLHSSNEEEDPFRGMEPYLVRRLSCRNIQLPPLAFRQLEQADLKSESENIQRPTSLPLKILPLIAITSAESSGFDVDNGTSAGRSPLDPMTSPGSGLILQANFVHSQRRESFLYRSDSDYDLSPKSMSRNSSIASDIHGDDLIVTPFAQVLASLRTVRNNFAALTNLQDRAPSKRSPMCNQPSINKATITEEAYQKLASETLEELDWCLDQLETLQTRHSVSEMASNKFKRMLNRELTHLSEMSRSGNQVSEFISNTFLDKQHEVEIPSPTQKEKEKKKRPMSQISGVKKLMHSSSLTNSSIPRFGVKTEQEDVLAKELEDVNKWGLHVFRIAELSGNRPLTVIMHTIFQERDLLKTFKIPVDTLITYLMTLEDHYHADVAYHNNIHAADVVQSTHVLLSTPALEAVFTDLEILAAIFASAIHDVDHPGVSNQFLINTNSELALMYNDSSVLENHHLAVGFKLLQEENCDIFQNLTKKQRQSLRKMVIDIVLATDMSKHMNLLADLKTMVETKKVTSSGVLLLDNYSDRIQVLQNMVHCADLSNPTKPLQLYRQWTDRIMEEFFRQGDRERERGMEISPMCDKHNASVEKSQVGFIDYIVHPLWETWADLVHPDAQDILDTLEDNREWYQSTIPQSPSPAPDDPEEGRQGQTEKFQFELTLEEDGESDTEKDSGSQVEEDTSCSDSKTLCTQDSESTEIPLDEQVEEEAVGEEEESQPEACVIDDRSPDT
Sequence of PDE4 h4B1 (Q07343 whole entry, canonical isoform): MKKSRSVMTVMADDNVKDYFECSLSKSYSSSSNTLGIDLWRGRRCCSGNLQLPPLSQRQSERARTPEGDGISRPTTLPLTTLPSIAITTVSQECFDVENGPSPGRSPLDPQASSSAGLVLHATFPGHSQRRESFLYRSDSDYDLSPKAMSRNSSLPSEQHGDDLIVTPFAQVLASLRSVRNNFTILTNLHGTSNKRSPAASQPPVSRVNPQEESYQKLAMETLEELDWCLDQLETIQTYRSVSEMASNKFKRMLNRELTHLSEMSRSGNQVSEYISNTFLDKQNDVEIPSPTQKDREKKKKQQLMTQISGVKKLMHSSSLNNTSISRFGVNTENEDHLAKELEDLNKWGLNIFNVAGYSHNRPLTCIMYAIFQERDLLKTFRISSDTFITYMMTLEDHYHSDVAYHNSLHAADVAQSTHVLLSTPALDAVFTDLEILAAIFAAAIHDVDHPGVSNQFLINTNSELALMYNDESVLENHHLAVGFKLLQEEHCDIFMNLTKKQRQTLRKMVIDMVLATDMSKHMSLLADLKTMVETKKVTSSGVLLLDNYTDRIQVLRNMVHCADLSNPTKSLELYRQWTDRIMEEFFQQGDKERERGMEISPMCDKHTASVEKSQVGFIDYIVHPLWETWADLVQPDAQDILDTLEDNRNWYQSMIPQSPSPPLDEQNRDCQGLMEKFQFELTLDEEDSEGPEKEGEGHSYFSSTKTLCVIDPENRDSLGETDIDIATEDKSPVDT

SMILES	IC50 (PDE4 h4D7) [µM]	IC50 (PDE4 h4B1) [µM]	IC50 [1] [µM]
COc1ccc(Cc2ccc(NC(N)=O)cc2)c(F)c1Oc1ccccn1 [Example P-12]	< 1	> 21	–
COc1ccc(Cc2ccc(NS(C)(=O)=O)nc2)cc1Oc1cccc(Cl)c1 [Example P-09, N-{5-[3-(3-Chloro-phenoxy)-4-methoxy-benzyl]-pyridin-2-yl}-methanesulfonamide]	1 to 10	> 21	–
COc1ccc(Cc2ccc(O)cc2)cc1Oc1cccc(Cl)c1 [Example P-08, 4-[3-(3-chloro-phenoxy)-4-methoxy-benzyl]-phenol]	1 to 10	> 21	–
COc1ccc(Cc2ccc(N)nc2)cc1Oc1cccc(Cl)c1 [Example P-05, 5-[3-(3-Chloro-phenoxy)-4-methoxy-benzyl]-pyridin-2-ylamine]	1 to 10	11 to 20	–
COc1ccc(Cc2ccc(NS(C)(=O)=O)cc2)cc1Oc1ccccc1 [Example P-04, N-[4-(4-Methoxy-3-phenoxy-benzyl)-phenyl]-methanesulfonamide]	> 21	> 21	–
COc1ccc(Cc2ccc(NC(N)=O)nc2)cc1Oc1cccc(Cl)c1 [Example P-06, {5-[3-(3-Chloro-phenoxy)-4-methoxy-benzyl]-pyridin-2-yl}-urea]	1 to 10	1 to 10	–

Next, values leading:

IC50 (PDE4 h4D7) [µM]	IC50 (PDE4 h4B1) [µM]	IC50 [1] [µM]	SMILES
< 1	1 to 10	–	COc1ccc(Cc2ccc(F)cc2)c(F)c1Oc1cccc(Cl)c1 [Example P-03, 2-(3-Chloro-phenoxy)-3-fluoro-4-(4-fluoro-benzyl)-1-methoxy-benzene]
> 21	> 21	–	COc1ccc(Cc2ccc(F)cc2)c(F)c1Oc1cccc(N)c1 [Example P-02, 3-[2-Fluoro-3-(4-fluoro-benzyl)-6-methoxy-phenoxy]-phenylamine]
< 1	> 21	< 1	COc1ccc(Cc2ccc(F)cc2)c(F)c1Oc1cccc([N+](=O)[O-])c1 [Example P-01, 2-Fluoro-1-(4-fluoro-benzyl)-4-methoxy-3-(3-nitro-phenoxy)-benzene]
1 to 10	1 to 10	–	COc1ccc(Cc2ccc(N)cc2)cc1Oc1cccc(Cl)c1 [Example P-07, 4-[3-(3-Chloro-phenoxy)-4-methoxy-benzyl]-phenylamine]
< 1	1 to 10	–	COc1ccc(Cc2ccc(NC(N)=O)cc2)c(F)c1Oc1ccc(F)cc1 [Example P-11, {4-[2-Fluoro-3-(4-fluoro-phenoxy)-4-methoxy-benzyl]-phenyl}-urea]
11 to 20	> 21	–	COc1ccc(Cc2ccc(NC(C)=O)cc2)c(F)c1Oc1ccc(F)cc1 [Example P-10, N-{4-[2-Fluoro-3-(4-fluoro-phenoxy)-4-methoxy-benzyl]-phenyl}-acetamide]
